Results as given in a compilation of properties of binary mixtures (doi:10.1021/jp911536z).

Assay: xn = mol fraction of the nth substance listed
Conditions: 298.15 K, 100 kPa

CCn1cc[n+](C)c1.C[C@H](O)C(=O)[O-] + O
Conditions | electrical conductivity [S/m] | speed of sound [m/s] | viscosity [mPa·s]
x1 = 0.0056 | 0.329 | – | –
x1 = 0.0097 | – | 1567.3 | 1.17
x1 = 0.0197 | – | 1631 | 1.44
x2 = 0.0056 | – | 1731.4 | –
x2 = 0.0097 | 1.76 | – | –
x2 = 0.0197 | 2.71 | – | –
x2 = 0.0304 | 3.15 | – | –
x2 = 0.0374 | 3.28 | – | –
x2 = 0.0464 | – | 1735.1 | 110
x2 = 0.0739 | 3.02 | – | –
x2 = 0.094 | 2.75 | – | –
x2 = 0.0982 | – | 1738.6 | 60.5
x2 = 0.2881 | 1.07 | – | –
x2 = 0.4781 | 0.597 | – | –
x2 = 0.5219 | – | 1797.9 | 18.5
x2 = 0.6862 | 0.481 | – | –
x2 = 0.7119 | – | 1826.6 | 11.3
x2 = 0.9018 | 0.259 | – | –
x2 = 0.906 | – | 1842.9 | 5.65
x2 = 0.9261 | – | 1819.8 | 4.36
x2 = 0.9536 | 0.289 | – | –
x2 = 0.9547 | – | 1748.4 | 2.68
x2 = 0.9626 | – | 1719.9 | 2.23
